# How the values were obtained:
# [1] = test system: Leishmania donovani GE1F8R strain; assay: In vivo efficacy assay against SAG-resistant strain; settings: BALB/c mice, i.v. 8 weeks after inoculation, 30 days post treatment
# Description: Inbred mice of 4-6 weeks old, weigh […] and of any sex, strain BALB/c were infected with Leishmania donovani GE1F8R strain by intravenous inoculation with 2.5×10^7 amastigotes from the spleen of an infected hamster. Eight weeks after inoculation, the mice were divided into groups of 4-5 animals and dosed intravenously into the tail vein with optimal dose of free SAG, equivalent amount of free SAG, empty PC-SA liposome or SAG entrapped PC-SA liposome ([…]). Mice were sacrificed on 30 days post treatment. Livers and spleens were excised and weighed. Bone marrow was also isolated and smeared on glass slides. Impressions smears were prepared from the cut surface of the liver and spleen. The impression smears were stained with Giemsa, and number of amastigotes counted microscopically per 500 cell nuclei. The results of 30 days post treatment are expressed as Leishman Donovan units and percentage suppression in parasitemia with respect untreated infected control were calculated.
# [2] = test system: Leishmania donovani, AG83; assay: In vivo efficacy in established infection model (8 weeks post infection); settings: BALB/c mice, single i.v. dose 8 weeks post infection, 30 days post treatment, SAG 0.3-0.4 g/kg body wt.
# Source text: Inbred mice of 4-6 weeks old, weigh 20 g and of any sex, strain BALB/c were infected with Leishmania donovani, AG83, by intravenous inoculation with 2.5×10^7 amastigotes from the spleen of an infected hamster. Eight weeks after inoculation, the mice were divided into groups of 4-5 animals and administered at a single dose intravenously into the tail vein with optimal dose of free SAG (0.3 g/kg wt.) or empty PC-SA liposome (1.1 g/kg wt.) or SAG entrapped PC-SA liposome (0.015 g/kg of SAG into 1.1 g/kg body wt.) or SAG entrapped in PC-Chol liposome (0.015 g/kg of SAG into 1.25 g/kg wt. of lipid). Mice were sacrificed on 30 days post treatment. Livers and spleens were excised and weighed. Bone marrow was also isolated from femur bone and smeared on glass slides. Impressions smears were prepared from the cut surface of the liver and spleen. The impression smears were stained with Giemsa, and number of amastigotes counted microscopically per 500 cell nuclei. The results of 30 days post treatment are shown below and expressed as percentage suppression in parasitemia with respect to untreated infected.
# [3] = test system: Leishmania donovani, AG83; assay: In vivo activity screening in chronic infection model (12 weeks post infection); settings: BALB/c mice, single i.v. dose 12 weeks post infection, 30 days post treatment; SAG 0.015-0.02 g/kg body wt.
# Source text: Inbred mice of 4-6 weeks old, weigh 20 g and of any sex, strain BALB/c were infected with Leishmania donovani, AG83, by intravenous inoculation with 2.5×10^7 amastigotes from the spleen of an infected hamster. Twelve weeks after inoculation, the mice were divided into groups of 4-5 animals and dosed intravenously into the tail vein with empty PC-SA liposome (1-1.1 g/kg body wt.), free SAG (0.015-0.020 g/kg body wt.) or equivalent amount of SAG entrapped in PC-SA liposome (0.015 g/kg of SAG in 1-1.1 g/kg body wt of liposome). Mice were sacrificed on 30 days post treatment. Livers and spleens were excised and weighed. Impressions smears were prepared from the cut surface of the liver and spleen. The impression smears were stained with Giemsa, and number of amastigotes counted microscopically per 500 cell nuclei. The results of 30 days post treatment are shown below and expressed percentage suppression in parasitemia with respect to untreated infected control calculated.
# [4] = test system: Leishmania donovani, AG83; assay: In vivo activity screening in established infection model with graded doses to calculate 50% effective dose; settings: for % Inhibition of liver parasite level / % Inhibition of spleen parasite level: BALB/c mice, i.v., 30 days post treatment
# Source text: Inbred mice of 4-6 weeks old, weigh 20 g and of any sex, strain BALB/c were infected with Leishmania donovani, AG83, by intravenous inoculation with 2.5×10^7 amastigotes from the spleen of an infected hamster. Eight weeks after inoculation, the mice were divided into groups of 4-5 animals and dosed intravenously into the tail vein with graded dose of free SAG, empty PC-SA liposome, or SAG entrapped PC-SA liposome. Mice were sacrificed on 30 days post treatment. The livers and spleens were excised and weighed. Impressions smears were prepared from the cut surface of the liver and spleen. The impression smears were stained with Giemsa, and number of amastigotes counted microscopically per 500 cell nuclei. The results of 30 days post treatment are expressed as percentage suppression in parasite burden in compared to infected but untreated mice. Thereby, the dosage necessary to reduce the parasite count to 50% of the untreated group could be calculated.
# [5] = liver parasite level, dose expressed as SAG
# [6] = spleen parasite level, dose expressed as SAG
compound,measurement,setting,value
sodium antimony gluconate [SAG],% Inhibition of parasite level,"[1]; bone marrow, SAG 0.015-0.02 g/kg body wt.",0%
same,% Inhibition of parasite level,"[1]; bone marrow, SAG 0.3 g/kg body wt.",16.836%
same,% Inhibition of parasite level,"[1]; liver, SAG 0.015-0.02 g/kg body wt.",0%
same,% Inhibition of parasite level,"[1]; liver, SAG 0.3 g/kg body wt.",5.309%
same,% Inhibition of parasite level,"[1]; spleen, SAG 0.015-0.02 g/kg body wt.",0%
same,% Inhibition of parasite level,"[1]; spleen, SAG 0.3 g/kg body wt.",16.836%
same,% Inhibition of liver parasite level,[2],82.322%
same,% Inhibition of spleen parasite level,[2],70%
same,% Inhibition of parasite level,[2]; bone marrow,44.029%
same,% Inhibition of liver parasite level,[3],50.88%
same,% Inhibition of spleen parasite level,[3],26.69%
same,% Inhibition of liver parasite level,[4]; SAG 0.005 g/kg body wt.,56.55%
same,% Inhibition of spleen parasite level,[4]; SAG 0.005 g/kg body wt.,41.27%
same,% Inhibition of liver parasite level,[4]; SAG 0.010 g/kg body wt.,56.7%
same,% Inhibition of spleen parasite level,[4]; SAG 0.010 g/kg body wt.,50.95%
same,% Inhibition of liver parasite level,[4]; SAG 0.050 g/kg body wt.,61.29%
same,% Inhibition of spleen parasite level,[4]; SAG 0.050 g/kg body wt.,55.67%
same,% Inhibition of liver parasite level,[4]; SAG 0.10 g/kg body wt.,88.03%
same,% Inhibition of spleen parasite level,[4]; SAG 0.10 g/kg body wt.,65.79%
same,% Inhibition of liver parasite level,[4]; SAG 0.30 g/kg body wt.,92.73%
same,% Inhibition of spleen parasite level,[4]; SAG 0.30 g/kg body wt.,70.49%
same,% Inhibition of liver parasite level,[4]; SAG 0.50 g/kg body wt.,96.6%
same,% Inhibition of spleen parasite level,[4]; SAG 0.50 g/kg body wt.,80.33%
same,"ED50 (+S.E) Liver, SAG",[4]; [5],0.012 + 0.004 g/kg body wt.
same,"ED90 (+S.E) Liver, SAG",[4]; [5],0.347 + 0.005 g/kg body wt.
same,"ED50 (+S.E) Spleen, SAG",[4]; [6],0.145 + 0.020 g/kg body wt.
same,"ED90 (+S.E) Spleen, SAG",[4]; [6],0.493 + 0.028 g/kg body wt.
C[C@@H]1[C@H](O)[C@@H](C)/C=C/C=C/C=C/C=C/C=C/C=C/C=C/[C@H](O[C@@H]2O[C@H](C)[C@@H](O)[C@H](N)[C@@H]2O)C[C@@H]2O[C@](O)(C[C@@H](O)C[C@@H](O)[C@H](O)CC[C@@H](O)C[C@@H](O)CC(=O)O[C@H]1C)C[C@H](O)[C@H]2C(=O)O [Amphotericin B],% Inhibition of parasite level,"[1]; bone marrow, Amphotericin B 0.002-0.0025 g/kg body wt.",85.091%
same,% Inhibition of parasite level,"[1]; liver, Amphotericin B 0.002-0.0025 g/kg body wt.",87.778%
same,% Inhibition of parasite level,"[1]; spleen, Amphotericin B 0.002-0.0025 g/kg body wt.",85.091%
